Results on six molecules are retold here after US11203577B2, “Sulfonyl-structure-containing triazinone derivatives, their preparation methods and their uses in insect killing and/or bacterium killing” (Nankai University, priority 2017, dated 2021).

One data set deals with Cucumber fusarium wilt. As to the kind of experiment: In vitro fungicidal activity, PDA colony diameter. It counts as cell-based. The note with it: 96 h, 50 mg/kg, inhibition of colony diameter, read-out: Fungicidal activity (%) Cucumber fusarium wilt.
For data set [1], the system named is Cercospora brown spot of peanut. The data set can be described thus: In vitro fungicidal activity, PDA colony diameter. It counts as cell-based. As to conditions: 96 h, 50 mg/kg, inhibition of colony diameter, read-out: Fungicidal activity (%) Cercospora brown spot of peanut.
For another data set, the system named is Tomato early blight. As to the kind of experiment: In vitro fungicidal activity, PDA colony diameter. It counts as cell-based, Alternaria solani. The note with it: 50 mg/kg, inhibition of colony diameter; read-out: Fungicidal activity (%) Tomato early blight.
Another data set has as its system Wheat head blight. The data set can be described thus: whole plant or invertebrate. It counts as cell-based. As to conditions: Triticum aestivum, read-out: Fungicidal activity (%) Wheat head blight.
The test system of another data set is Rice bakanae disease. As to the kind of experiment: In vitro fungicidal activity, PDA colony diameter. As to conditions: 50 mg/kg, inhibition of colony diameter; read-out: Fungicidal activity (%) Rice bakanae disease. It counts as cell-based.
The next data set relates to Sclerotinia rot of colza. As to the kind of experiment: In vitro fungicidal activity, PDA colony diameter. It counts as cell-based. The note with it: 96 h, 50 mg/kg, inhibition of colony diameter, read-out: Fungicidal activity (%) Sclerotinia rot of colza.
The next data set relates to Apple ring rot. As to the kind of experiment: In vitro fungicidal activity, PDA colony diameter. It counts as cell-based. The note with it: inhibition of colony diameter. The protocol:
(§1) Here, the test is described in an example of Alternaria solani; it can be replaced by other fungi.
(§2) In vitro testing method: Alternaria solani is inoculated to a PDA culture medium and cultured for 7 days, a fungus dish with a diameter of […] is prepared on the periphery of the colony with a punch and inoculated to a PDA culture medium that contains pesticide at a concentration of 50 mg/kg and a PDA culture medium that doesn't contain the pesticide, and are cultured for 4 days respectively; then, the colony diameters are measured, and the inhibition percentages of the pesticides are calculated by comparing with the control sample.

The subject of data set [2] is Capsicum phytophthora blight. The data set can be described thus: In vitro fungicidal activity, PDA colony diameter. It counts as cell-based. The note with it: 96 h. The protocol: as §1, §2
Another data set deals with Wheat sheath blight. As to the kind of experiment: In vitro fungicidal activity, PDA colony diameter. It counts as cell-based. As to conditions: 50 mg/kg, inhibition of colony diameter; read-out: Fungicidal activity (%) Wheat sheath blight.
For data set [3], the system named is Corn southern leaf blight. The data set can be described thus: In vitro fungicidal activity, PDA colony diameter. It counts as cell-based. As to conditions: 50 mg/kg, inhibition of colony diameter; read-out: Fungicidal activity (%) Corn southern leaf blight.
The next data set deals with Watermelon anthracnose. The data set can be described thus: In vitro fungicidal activity, PDA colony diameter. It counts as cell-based. As to conditions: 50 mg/kg, inhibition of colony diameter; read-out: Fungicidal activity (%) Watermelon anthracnose.
The next data set concerns Potato late blight. The data set can be described thus: microbe, parasite or virus in culture. It counts as cell-based. The note with it: Phytophthora infestans, 96 h, read-out: Fungicidal activity (%) Potato late blight.
The subject of another data set is Rice sheath blight. As to the kind of experiment: In vitro fungicidal activity, PDA colony diameter. It counts as cell-based. As to conditions: read-out: Fungicidal activity (%) Rice sheath blight.
In a further data set the test system is Armyworms. The data set can be described thus: Test of insecticidal activity against armyworms (leaf immersion). As to conditions: 600 mg/kg, 3-4 days.
The next data set concerns Maize borers. The data set can be described thus: Test of insecticidal activity against maize borers (leaf immersion). The note with it: read-out: Mortalities (%) Maize borers.
Data set [4] relates to mosquito larvae (Culer pipiens pallens). As to the kind of experiment: Test of insecticidal activity against mosquito larvae (checked after 24 h).
Method: Method of testing against mosquito larvae: the tested mosquito larvae are Culer pipiens pallens, a normal colony fed indoor. About 5 mg compound to be tested is weighed and loaded into a penicillin vial, 5 mL acetone (or an appropriate solvent) is added into the vial, and the vial is oscillated to dissolve the compound; thus, 1,000 ppm mother liquid is obtained. 1 mL mother liquid is weighed and added into a 100 mL beaker filled with 89 mL water, 10 mosquito larvae in the early stage of the 4th instar together with 10 mL feeding solution are poured into the beaker; thus, the concentration of the pesticide solution is 10 ppm (the pesticide solutions with other concentrations are attained by diluting the mother liquid by corresponding times). […] Water solution that contains 0.5 mL test solvent is used as a blank sample.
The subject of data set [5] is bean aphides (Aphis laburni Kaltenbach). The data set can be described thus: Test of insecticidal activity against aphides (leaf immersion, checked after 96 h). The note with it: for insecticidal activity against aphides compared with pymetrozine: 5 mg/kg; for mortality at 5 mg/kg / mortality at 10 mg/kg / mortality at 100 mg/kg / mortality at 600 mg/kg: Aphis, 96 h, read-out: Mortalities (%) against aphides.

The test system of the next data set is Cotton bollworms. As to the kind of experiment: Test of insecticidal activity against cotton bollworms (pesticide mixed into feedstuff). The note with it: read-out: Mortalities (%) Cotton bollworms.
The mark [6] stands for this setting: 50 mg/kg, inhibition of colony diameter.
Where [7] appears, read: 24 h, read-out: Mortalities (%) against mosquito larvae.

SMILES strings stand for the structures. Like-named read-outs stand apart in the source and are kept apart here.

Method for Cotton bollworms: Method of testing against cotton bollworms: the pesticide is mixed into the feedstuff, i.e., 3 mL prepared solution is added into about 27 g freshly prepared feedstuff; thus, required concentration is obtained by diluting by 10 times.

As for `CC1=NNC(=O)N(NS(=O)(=O)c2ccccc2F)C1` [Ia-16, 2-fluoro-N-(6-methyl-3-oxo-2,3-dihydro-1,2,4-triazin-4(5H)-yl)-benzenesulfonamide], the inhibition of growth at 50 mg/kg in the data set on Cucumber fusarium wilt amounted to 2.9%; in data set [1] it was 8%; in the data set on Sclerotinia rot of colza, 15.8%; in data set [2], 13.9%; with Potato late blight it was 3.1%. Moreover, the inhibition at 50 mg/kg in the data set with Tomato early blight stood at 13.4%; in the data set with Wheat head blight, 10.8%; in the data set with Rice bakanae disease it was 27.6%; in the data set on Apple ring rot, 17.6%; in the data set with Wheat sheath blight, 14.3%; in data set [3], 0%. The figures for the inhibition at 50 mg/kg in the data set on Watermelon anthracnose and with Rice sheath blight (setting [6]) were 8.2% and 11.6%, respectively. Also, the “Mortalities (%) Armyworms” value in the data set with Armyworms amounted to 10%. In addition, the mortality at 600 mg/kg was 15% with Maize borers, 100% in data set [5] and 10% in the data set on Cotton bollworms. In data set [4] (setting [7]), the mortality at 2 mg/kg stood at 30%. The mortality at 5 mg/kg in data set [4] (setting [7]) is 100%; in data set [5], 30%. Further, the mortality at 10 mg/kg in [4] (setting [7]) came out at 100%; in data set [5], 90%. Also, the “insecticidal activity against aphides compared with pymetrozine” value in data set [5] is listed as “equivalent to the insecticidal activity of pymetrozine”. The mortality at 100 mg/kg in data set [5] stood at 100%.
Regarding `CC1=NNC(=O)N(NS(=O)(=O)c2ccc(I)cc2)C1` [Ia-23, 4-iodo-N-(6-methyl-3-oxo-2,3-dihydro-1,2,4-triazin-4(5H)-yl)-benzenesulfonamide], the inhibition of growth at 50 mg/kg stood at 8.8% with Cucumber fusarium wilt; 28% in [1]; 31.6% in the data set with Sclerotinia rot of colza; 38.9% in data set [2]; 34.3% in the data set on Potato late blight. Moreover, the inhibition at 50 mg/kg was 19.4% in the data set on Tomato early blight; 10.8% in the data set with Wheat head blight; 20.7% in the data set with Rice bakanae disease; 25.7% in the data set on Apple ring rot; 21.7% in the data set on Wheat sheath blight; 25% in data set [3]. The inhibition at 50 mg/kg in the data set with Watermelon anthracnose is 68.4%; with Rice sheath blight (setting [6]) it was 29.1%. For the same molecule, the “Mortalities (%) Armyworms” value in the data set on Armyworms was 25%. The mortality at 600 mg/kg in the data set with Maize borers is 20%; in data set [5], 100%; with Cotton bollworms it was 30%. The mortality at 1 mg/kg in [4] (setting [7]) came to 30%. Also, the mortality at 2 mg/kg in data set [4] (setting [7]) came out at 100%. Also, the values for the mortality at 5 mg/kg in data set [4] (setting [7]) and in data set [5] were 100% and 45%, respectively. Further, the mortality at 10 mg/kg in data set [4] (setting [7]) and in data set [5] was 100% in each case. The “insecticidal activity against mosquito larvae” value in data set [4] (in vivo) is recorded as “relatively high insecticidal activity”. Besides, in data set [5], the “insecticidal activity against aphides compared with pymetrozine” value is recorded as “equivalent to the insecticidal activity of pymetrozine”. In [5], the mortality at 100 mg/kg is 100%.
Take `CCS(=O)(=O)NN1CC(C)=NNC1=O` [Ia-2, N-(6-methyl-3-oxo-2,3-dihydro-1,2,4-triazin-4(5H)-yl)-ethylsulfonamide]: the inhibition of growth at 50 mg/kg in the data set with Cucumber fusarium wilt amounted to 5%; in data set [1], 15.8%; in the data set with Sclerotinia rot of colza it was 56.7%; in [2] it was 36.7%; with Potato late blight, 22.2%. For the same molecule, the inhibition at 50 mg/kg was determined as 33.3% with Tomato early blight; 20% in the data set with Wheat head blight; 50% in the data set with Rice bakanae disease; 20.7% with Apple ring rot; 63.6% with Wheat sheath blight; 29.2% in [3]. For the same molecule, the figures for the inhibition at 50 mg/kg in the data set on Watermelon anthracnose and in the data set with Rice sheath blight (setting [6]) were 33.3% and 34.9%, respectively. Further, the “Mortalities (%) Armyworms” value with Armyworms is 10%. Moreover, the mortality at 600 mg/kg is 15% in the data set on Maize borers, 100% in data set [5] and 5% with Cotton bollworms. The results for the mortality at 10 mg/kg in [4] (setting [7]) and in data set [5] were 20% and 50%, respectively. In addition, the mortality at 100 mg/kg in data set [5] worked out at 90%.
Regarding `CC1=NNC(=O)N(NS(=O)(=O)c2cn(C)cn2)C1` [Ia-31, 1-methyl-N-(6-methyl-3-oxo-2,3-dihydro-1,2,4-triazin-4(5H)-yl)-1H-imidazolyl-4-sulfonamide], the inhibition of growth at 50 mg/kg with Cucumber fusarium wilt was found to be 14.7%; in data set [1], 13%; in the data set on Sclerotinia rot of colza, 31.6%; in data set [2], 18.8%; in the data set with Potato late blight, 18.8%. In addition, the inhibition at 50 mg/kg in the data set on Tomato early blight was 16.1%; in the data set with Wheat head blight, 17.2%; with Rice bakanae disease, 12.5%; in the data set on Apple ring rot, 29.4%; in the data set on Wheat sheath blight it was 47.1%; in data set [3] it was 2.6%. Further, the values for the inhibition at 50 mg/kg in the data set with Watermelon anthracnose and in the data set on Rice sheath blight (setting [6]) were 28.1% and 5.8%, respectively. In addition, the “Mortalities (%) Armyworms” value with Armyworms is reported as 10%. Besides, the figures for the mortality at 600 mg/kg (with Maize borers; in data set [5]; in the data set with Cotton bollworms) were 15%, 100% and 5%, respectively. In addition, the mortality at 10 mg/kg came to 60% in data set [4] (setting [7]) and 35% in data set [5]. The mortality at 100 mg/kg in [5] is 100%.
As to `CC1=NNC(=O)N(NS(=O)(=O)c2c(C)noc2C)C1` [Ia-30, 3,5-dimethyl-N-(6-methyl-3-oxo-2,3-dihydro-1,2,4-triazin-4(5H)-yl)-isoxazolyl-4-sulfonamide], the inhibition of growth at 50 mg/kg in the data set with Cucumber fusarium wilt was 23.1%; in data set [1] it was 19.2%; in the data set with Sclerotinia rot of colza, 12.5%; in [2], 11.5%; in the data set with Potato late blight, 14.3%. Also, the inhibition at 50 mg/kg was 20% in the data set with Tomato early blight; 12.1% in the data set with Wheat head blight; 14.8% in the data set with Rice bakanae disease; 23.8% in the data set on Apple ring rot; 7.5% with Wheat sheath blight; 19.4% in [3]. Also, the inhibition at 50 mg/kg with Watermelon anthracnose came out at 25%; with Rice sheath blight, 14.3%. The “Mortalities (%) Armyworms” value in the data set with Armyworms came to 20%. For the same molecule, the mortality at 600 mg/kg in the data set with Maize borers worked out at 15%; in data set [5], 95%; in the data set on Cotton bollworms it was 25%. For the same molecule, in data set [4] (setting [7]), the mortality at 10 mg/kg amounted to 35%. Moreover, the mortality at 100 mg/kg in data set [5] was found to be 45%.
With `CC1=NNC(=O)N(NS(=O)(=O)C2CCCCC2)C1` [Ia-6, N-(6-methyl-3-oxo-2,3-dihydro-1,2,4-triazin-4(5H)-yl)-cyclohexylsulfonamide], the inhibition of growth at 50 mg/kg worked out at 20.6% with Cucumber fusarium wilt; 13% in data set [1]; 31.6% in the data set with Sclerotinia rot of colza; 18.8% in data set [2]; 3.1% with Potato late blight. For the same molecule, the inhibition at 50 mg/kg with Tomato early blight was 12.9%; in the data set with Wheat head blight it was 10.9%; with Rice bakanae disease it was 12.5%; in the data set on Apple ring rot it was 39.2%; in the data set on Wheat sheath blight it was 30.9%; in [3], 7.7%. Further, the inhibition at 50 mg/kg with Watermelon anthracnose was 12.5%; with Rice sheath blight (setting [6]), 11.6%. Moreover, the “Mortalities (%) Armyworms” value in the data set with Armyworms amounted to 50%. The mortality at 600 mg/kg came to 40% with Maize borers, 85% in [5] and 30% in the data set on Cotton bollworms. The mortality at 10 mg/kg in data set [4] (setting [7]) came out at 70%. Besides, the mortality at 100 mg/kg in data set [5] amounted to 45%.
